For 4 compounds, mass density results are on record in the NIST ThermoML archive (doi:10.1016/j.fluid.2005.09.025).

For the data set the following is noted: 298.15 K, 101.33 kPa, Liquid.

The structures appear in SMILES notation. ± gives the expanded uncertainty stated by the source.

A word on the mass density: it is the mass of a sample divided by its volume.

Consider `CO` [methanol], for which the mass density (Vibrating tube method) came to 786.55 ± 0.16 kg/m3. Turning to `CCCC(C)C` [2-methylpentane], the mass density (Vibrating tube method) is 648.45 ± 0.22 kg/m3.

As for `CC1CCCCC1` [methylcyclohexane], the mass density was 764.96 ± 0.35 kg/m3. With `CN(C)C=O` [dimethylformamide], the mass density (Vibrating tube method) is listed as 943.81 ± 0.09 kg/m3.
